Measured values reported in the NIST ThermoML archive (doi:10.1021/je100208e).

Legend:
[1] = for vapor or sublimation pressure: Knudsen effusion; for Normal melting temperature: DTA
[2] = Molar enthalpy of transition or fusion; details: Crystal; DSC

c1ccc2cc3ccccc3cc2c1 [anthracene]
[1], Crystal
Details	vapor or sublimation pressure [kPa]
300 K	1.192e-06
305 K	2.257e-06
310 K	4.186e-06
315 K	7.613e-06
320 K	1.359e-05
325 K	2.383e-05
330 K	4.109e-05
335 K	6.969e-05
340 K	0.0001164
345 K	0.0001915
350 K	0.0003107
355 K	0.0004972
360 K	0.0007852
365 K	0.001225
370 K	0.001888
373 K	0.002433

Details	Normal melting temperature [°C]
[1], Crystal	217

Details	Molar enthalpy of transition or fusion [kcal/mol]
[2]	6.65

c1cc2ccc3cccc4ccc(c1)c2c34 [pyrene]
[1], Crystal 1
Details	vapor or sublimation pressure [kPa]
315 K	4.79e-06
320 K	8.55e-06
325 K	1.499e-05
330 K	2.584e-05
335 K	4.382e-05
340 K	7.317e-05
345 K	0.0001204
350 K	0.0001952
355 K	0.0003124
360 K	0.0004933
365 K	0.0007693
370 K	0.001185
375 K	0.001806
378 K	0.002312

Details	Normal melting temperature [°C]
[1], Crystal	151

Details	Molar enthalpy of transition or fusion [kcal/mol]
[2]	3.87
